Laboratory results taken from ChEMBL document CHEMBL4028808, “Design and synthesis of selective CDK8/19 dual inhibitors: Discovery of 4,5-dihydrothieno[3',4':3,4]benzo[1,2-d]isothiazole derivatives” (Bioorg Med Chem, 2017).
Active and inactive are the calls of the source. The calls are words filed in the database; no cut-off is given here.

Columns and labels:
[1] = target: Rho-associated protein kinase 1 (Homo sapiens) (UniProt Q13464); experiment: Inhibition of ROCK1 (unknown origin) at 1 uM using long S6 peptide as substrate pretreated for 5 mins followed by substrate addition measured after 10 mins in presence of [gamma33P]ATP by scintillation counting method relative to control
[2] = target: Homeodomain-interacting protein kinase 2 (Homo sapiens) (UniProt Q9H2X6); experiment: Binding affinity to partial length wild-type human HIPK2 (M153 to S564 residues) expressed in mammalian expression system assessed as unbound drug level at 300 nM by KINOMEscan assay
[3] = target: Glycogen synthase kinase-3 beta (Homo sapiens) (UniProt P49841); experiment: Inhibition of GSK3beta (unknown origin) at 1 uM using GSK3 substrate peptide preincubated for 5 mins followed by substrate addition measured after 30 mins in presence of [gamma33P]ATP by scintillation counter method relative to control
[4] = tested on: Mus musculus; experiment: AUC (0 to 24 hrs) in ICR mouse plasma at 0.1 mg/kg, iv administered as cassette dose by LC-MS/MS analysis; format: ADME, organism-based; set-up: dose 0.1 mg/kg, time < 24 hr, route intravenous; details: in vivo
[5] = target: Vascular endothelial growth factor receptor 2 (Homo sapiens) (UniProt P35968); experiment: Inhibition of VEGFR2 (unknown origin) at <1 uM using biotinylated poly[Glu:Tyr] (4:1) as substrate pretreated for 5 mins followed by substrate addition measured after 10 mins by Alphascreen assay
[6] = tested on: Calu-1; experiment: Growth inhibition of human Calu1 cells after 196 hrs by CellTiter-Glo luminescence assay; format: functional; details: Calu-1, 196 h
[7] = Intrinsic clearance in human liver microsomes at 1 umol/l after 15 to 30 mins in presence of NADPH by LC-MS/MS analysis; format: ADME, microsome; details: read-out: CLH
[8] = target: Dual specificity tyrosine-phosphorylation-regulated kinase 1A (Homo sapiens) (UniProt Q13627); experiment: Binding affinity to partial length wild-type human DYRK1A (H129 to S509 residues) expressed in mammalian expression system assessed as unbound drug level at 300 nM by KINOMEscan assay
[9] = target: RAC-alpha serine/threonine-protein kinase (Homo sapiens) (UniProt P31749); experiment: Inhibition of Akt1 (unknown origin) at <1 uM using AKT1 substrate pretreated for 5 mins followed by substrate addition after 20 mins in presence of [gamma33P]ATP by scintillation counter method
[10] = target: CDC7/DBF4 (Cell division cycle 7-related protein kinase/Activator of S phase kinase) (Homo sapiens) (UniProt Q9UBU7+O00311); experiment: Inhibition of CDC7/Dbf4 (unknown origin) at 1 uM using His-tagged MCM2 as substrate preincubated for 5 mins followed by substrate addition measured after 60 mins in presence of [gamma33P]ATP by scintillation counter method relative to control; format: protein-complex assay
[11] = Volume of distribution at steady state in ICR mouse plasma at 0.1 mg/kg, iv administered as cassette dose by LC-MS/MS analysis; format: ADME, organism-based; details: read-out: Vdss
[12] = target: High affinity nerve growth factor receptor (Homo sapiens) (UniProt P04629); experiment: Inhibition of TrkA (unknown origin) at <1 uM
[13] = tested on: Mus musculus; experiment: In vivo inhibition of CDK8-mediated STAT1 phosphorylation in human RPMI8226 cells xenografted in C.B17/Icr scid/scid Jcl mouse at 1.25 mg/kg, po bid administered for 14 days measured 2 to 8 hrs post last dose; format: functional, organism-based
[14] = Mean residence time in ICR mouse plasma at 1 mg/kg, po administered as cassette dose by LC-MS/MS analysis; format: ADME, organism-based
[15] = tested on: Mus musculus; experiment: In vivo inhibition of CDK8-mediated STAT1 phosphorylation in human RPMI8226 cells xenografted in C.B17/Icr scid/scid Jcl mouse at 2.5 mg/kg, po bid administered for 14 days measured 2 to 8 hrs post last dose; format: functional, organism-based
[16] = tested on: SW480; experiment: Growth inhibition of human SW480 cells after 196 hrs by CellTiter-Glo luminescence assay relative to control; format: functional
[17] = target: Aurora kinase B (Homo sapiens) (UniProt Q96GD4); experiment: Inhibition of Aurora B (unknown origin) at <1 uM using aurora peptide as substrate preincubated for 5 mins followed by substrate addition measured after 60 mins in presence of [gamma33P]ATP by scintillation counter method
[18] = target: Insulin receptor (Homo sapiens) (UniProt P06213); experiment: Inhibition of IRK (unknown origin) at <1 uM using biotinylated poly[Glu:Tyr] (4:1) as substrate pretreated for 5 mins followed by substrate addition measured after 60 mins by Alphascreen assay
[19] = target: Focal adhesion kinase 1 (Homo sapiens) (UniProt Q05397); experiment: Inhibition of FAK (unknown origin) at <1 uM using biotinylated poly[Glu:Tyr] (4:1) as substrate pretreated for 5 mins followed by substrate addition measured after 20 mins by Alphascreen assay
[20] = species: Homo sapiens; experiment: Inhibition of PKA (unknown origin) at 1 uM using PKA peptide as substrate preincubated for 5 mins followed by substrate addition measured after 10 mins in presence of [gamma33P]ATP by scintillation counter method relative to control
[21] = target: CDK8/Cyclin C (Homo sapiens, UniProt P49336); experiment: Inhibition of kinase tracer-236 binding to GST-tagged CDK8/CyclinC (unknown origin) after 60 mins by TR-FRET assay; format: protein-complex assay
[22] = target: Ephrin type-A receptor 5 (Homo sapiens) (UniProt P54756); experiment: Inhibition of EphA5 (unknown origin) at <1 uM using biotinylated poly[Glu:Tyr] (4:1) as substrate pretreated for 5 mins followed by substrate addition measured after 10 mins by Alphascreen assay
[23] = target: Mitogen-activated protein kinase 3 (Homo sapiens) (UniProt P27361); experiment: Inhibition of ERK1 (unknown origin) at <1 uM using MBP as substrate preincubated for 5 mins followed by substrate addition measured after 60 mins in presence of [gamma33P]ATP by scintillation counter method
[24] = Toxicity in C.B17/Icr scid/scid Jcl mouse mouse; details: in vivo
[25] = AUC (0 to 24 hrs) in ICR mouse plasma at 1 mg/kg, po administered as cassette dose by LC-MS/MS analysis; format: ADME, organism-based; set-up: dose 1 mg/kg, time < 24 hr, route oral
[26] = target: Ephrin type-A receptor 3 (Homo sapiens) (UniProt P29320); experiment: Binding affinity to partial length wild-type human EPHA3 (D604 to K889 residues) expressed in bacterial expression system assessed as unbound drug level at 300 nM by KINOMEscan assay
[27] = target: Serine/threonine-protein kinase Chk1 (Homo sapiens) (UniProt O14757); experiment: Inhibition of CHK1 (unknown origin) at <1 uM using CHKtide as substrate preincubated for 5 mins followed by substrate addition measured after 10 mins in presence of [gamma33P]ATP by scintillation counter method
[28] = Cmax in ICR mouse plasma at 1 mg/kg, po administered as cassette dose by LC-MS/MS analysis; format: ADME, organism-based; set-up: dose 1 mg/kg, route oral
[29] = target: Proto-oncogene tyrosine-protein kinase Src (Homo sapiens) (UniProt P12931); experiment: Inhibition of SRC (unknown origin) at <1 uM using biotinylated poly[Glu:Tyr] (4:1) as substrate pretreated for 5 mins followed by substrate addition measured after 10 mins by Alphascreen assay
Chain of Proto-oncogene tyrosine-protein kinase Src (Homo sapiens) (P12931 2-536 limits assumed): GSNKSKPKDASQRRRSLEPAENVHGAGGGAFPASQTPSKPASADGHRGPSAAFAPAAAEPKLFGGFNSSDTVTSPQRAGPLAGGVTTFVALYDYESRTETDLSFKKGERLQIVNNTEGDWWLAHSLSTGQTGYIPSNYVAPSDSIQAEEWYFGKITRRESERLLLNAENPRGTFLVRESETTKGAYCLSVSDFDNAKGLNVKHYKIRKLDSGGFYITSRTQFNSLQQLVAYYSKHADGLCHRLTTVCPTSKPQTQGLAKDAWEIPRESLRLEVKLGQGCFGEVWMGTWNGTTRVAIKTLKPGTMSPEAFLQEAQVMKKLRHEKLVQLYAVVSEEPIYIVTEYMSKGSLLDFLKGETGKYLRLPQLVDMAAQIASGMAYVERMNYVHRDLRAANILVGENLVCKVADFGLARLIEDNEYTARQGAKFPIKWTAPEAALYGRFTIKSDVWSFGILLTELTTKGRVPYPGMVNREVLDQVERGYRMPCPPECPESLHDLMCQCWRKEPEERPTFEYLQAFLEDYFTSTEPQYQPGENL

Chain of Rho-associated protein kinase 1 (Homo sapiens) (Q13464 2-1354 limits assumed): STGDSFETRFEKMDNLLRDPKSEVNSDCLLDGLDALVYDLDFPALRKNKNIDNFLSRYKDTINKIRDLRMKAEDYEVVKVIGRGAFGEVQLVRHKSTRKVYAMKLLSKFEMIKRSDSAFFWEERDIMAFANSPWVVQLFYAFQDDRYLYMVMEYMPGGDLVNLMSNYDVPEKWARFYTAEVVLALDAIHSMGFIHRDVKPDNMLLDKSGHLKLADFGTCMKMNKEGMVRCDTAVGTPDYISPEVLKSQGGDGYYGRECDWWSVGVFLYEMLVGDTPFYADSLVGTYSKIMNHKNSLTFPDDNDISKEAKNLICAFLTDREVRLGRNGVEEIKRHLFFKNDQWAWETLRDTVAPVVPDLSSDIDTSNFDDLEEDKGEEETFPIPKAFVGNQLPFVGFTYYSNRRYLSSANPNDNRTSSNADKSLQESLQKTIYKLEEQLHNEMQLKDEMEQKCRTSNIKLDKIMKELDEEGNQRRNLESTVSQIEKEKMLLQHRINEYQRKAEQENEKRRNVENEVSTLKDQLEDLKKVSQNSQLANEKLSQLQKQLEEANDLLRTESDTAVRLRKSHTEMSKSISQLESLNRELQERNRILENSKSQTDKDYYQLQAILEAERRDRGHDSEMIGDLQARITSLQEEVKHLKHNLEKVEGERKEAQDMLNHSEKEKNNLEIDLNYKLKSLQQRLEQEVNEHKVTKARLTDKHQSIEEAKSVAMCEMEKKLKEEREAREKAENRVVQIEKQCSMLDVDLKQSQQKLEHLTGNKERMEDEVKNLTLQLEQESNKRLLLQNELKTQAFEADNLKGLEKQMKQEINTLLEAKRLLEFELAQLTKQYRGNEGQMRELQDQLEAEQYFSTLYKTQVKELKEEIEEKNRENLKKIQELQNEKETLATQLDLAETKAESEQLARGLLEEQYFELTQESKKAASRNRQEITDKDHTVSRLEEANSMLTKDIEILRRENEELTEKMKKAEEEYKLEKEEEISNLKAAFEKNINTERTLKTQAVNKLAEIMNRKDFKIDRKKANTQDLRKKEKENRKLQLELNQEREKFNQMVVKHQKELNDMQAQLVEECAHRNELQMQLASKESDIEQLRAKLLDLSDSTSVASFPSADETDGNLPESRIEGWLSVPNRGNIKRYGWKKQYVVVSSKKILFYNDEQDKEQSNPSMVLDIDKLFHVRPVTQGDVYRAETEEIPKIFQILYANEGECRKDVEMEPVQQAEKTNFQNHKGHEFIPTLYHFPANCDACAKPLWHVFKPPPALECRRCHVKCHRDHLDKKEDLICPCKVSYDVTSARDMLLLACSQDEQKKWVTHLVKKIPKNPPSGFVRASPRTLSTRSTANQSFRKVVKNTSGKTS
Chain of Ephrin type-A receptor 3 (Homo sapiens) (P29320 whole entry, the tested form may be a part): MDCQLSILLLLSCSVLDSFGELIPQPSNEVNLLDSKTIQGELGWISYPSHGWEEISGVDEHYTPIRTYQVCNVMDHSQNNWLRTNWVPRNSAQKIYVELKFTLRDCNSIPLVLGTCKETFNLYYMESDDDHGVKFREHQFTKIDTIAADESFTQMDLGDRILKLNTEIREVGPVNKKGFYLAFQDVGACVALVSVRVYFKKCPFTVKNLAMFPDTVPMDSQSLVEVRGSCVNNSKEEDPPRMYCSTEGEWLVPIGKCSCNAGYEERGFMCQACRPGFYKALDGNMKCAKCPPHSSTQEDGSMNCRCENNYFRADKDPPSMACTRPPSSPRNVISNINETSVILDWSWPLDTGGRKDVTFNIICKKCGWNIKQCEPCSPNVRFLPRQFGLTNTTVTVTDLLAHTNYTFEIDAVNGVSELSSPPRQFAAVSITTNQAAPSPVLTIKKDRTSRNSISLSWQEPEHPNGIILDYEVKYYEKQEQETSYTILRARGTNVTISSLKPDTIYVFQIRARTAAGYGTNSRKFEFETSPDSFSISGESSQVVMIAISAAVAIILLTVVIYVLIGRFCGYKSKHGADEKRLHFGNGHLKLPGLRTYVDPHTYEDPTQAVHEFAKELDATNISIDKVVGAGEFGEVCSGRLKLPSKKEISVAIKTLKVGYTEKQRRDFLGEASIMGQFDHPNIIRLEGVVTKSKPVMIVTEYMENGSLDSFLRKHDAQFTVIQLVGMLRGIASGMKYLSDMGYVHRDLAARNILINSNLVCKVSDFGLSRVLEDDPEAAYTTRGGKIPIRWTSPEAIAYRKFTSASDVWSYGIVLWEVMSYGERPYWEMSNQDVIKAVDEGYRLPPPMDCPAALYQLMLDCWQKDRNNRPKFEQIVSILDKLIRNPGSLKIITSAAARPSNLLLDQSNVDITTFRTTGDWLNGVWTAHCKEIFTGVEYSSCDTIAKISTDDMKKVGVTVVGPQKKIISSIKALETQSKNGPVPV
Chain of Ephrin type-A receptor 5 (Homo sapiens) (P54756 whole entry): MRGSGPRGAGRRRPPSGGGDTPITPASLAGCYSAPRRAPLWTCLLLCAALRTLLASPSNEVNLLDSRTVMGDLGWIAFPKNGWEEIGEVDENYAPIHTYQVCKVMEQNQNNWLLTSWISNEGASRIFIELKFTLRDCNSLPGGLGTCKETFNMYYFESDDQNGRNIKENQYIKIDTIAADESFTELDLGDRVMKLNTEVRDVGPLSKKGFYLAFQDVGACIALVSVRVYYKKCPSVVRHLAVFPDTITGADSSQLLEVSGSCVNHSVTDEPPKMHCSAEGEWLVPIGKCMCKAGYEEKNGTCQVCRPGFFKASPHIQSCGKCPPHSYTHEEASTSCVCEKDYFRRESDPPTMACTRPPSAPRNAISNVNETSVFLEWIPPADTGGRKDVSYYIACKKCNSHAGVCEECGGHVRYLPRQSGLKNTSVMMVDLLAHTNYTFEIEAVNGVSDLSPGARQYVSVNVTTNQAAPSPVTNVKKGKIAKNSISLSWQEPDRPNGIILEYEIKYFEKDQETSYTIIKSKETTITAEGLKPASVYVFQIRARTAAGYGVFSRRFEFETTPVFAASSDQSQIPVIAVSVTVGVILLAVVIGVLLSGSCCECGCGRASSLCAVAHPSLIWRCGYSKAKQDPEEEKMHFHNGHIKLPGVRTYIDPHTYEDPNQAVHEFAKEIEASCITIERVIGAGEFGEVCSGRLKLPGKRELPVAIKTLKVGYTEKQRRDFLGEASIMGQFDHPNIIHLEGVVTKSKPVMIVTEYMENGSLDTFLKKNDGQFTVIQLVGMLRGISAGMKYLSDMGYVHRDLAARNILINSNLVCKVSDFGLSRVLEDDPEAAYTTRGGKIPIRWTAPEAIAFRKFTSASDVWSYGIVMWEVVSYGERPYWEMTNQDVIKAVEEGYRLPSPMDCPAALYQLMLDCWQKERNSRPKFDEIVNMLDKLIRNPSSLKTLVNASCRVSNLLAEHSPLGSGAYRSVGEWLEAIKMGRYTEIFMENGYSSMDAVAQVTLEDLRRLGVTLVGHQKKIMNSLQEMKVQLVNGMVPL
Chain of RAC-alpha serine/threonine-protein kinase (Homo sapiens) (P31749 whole entry): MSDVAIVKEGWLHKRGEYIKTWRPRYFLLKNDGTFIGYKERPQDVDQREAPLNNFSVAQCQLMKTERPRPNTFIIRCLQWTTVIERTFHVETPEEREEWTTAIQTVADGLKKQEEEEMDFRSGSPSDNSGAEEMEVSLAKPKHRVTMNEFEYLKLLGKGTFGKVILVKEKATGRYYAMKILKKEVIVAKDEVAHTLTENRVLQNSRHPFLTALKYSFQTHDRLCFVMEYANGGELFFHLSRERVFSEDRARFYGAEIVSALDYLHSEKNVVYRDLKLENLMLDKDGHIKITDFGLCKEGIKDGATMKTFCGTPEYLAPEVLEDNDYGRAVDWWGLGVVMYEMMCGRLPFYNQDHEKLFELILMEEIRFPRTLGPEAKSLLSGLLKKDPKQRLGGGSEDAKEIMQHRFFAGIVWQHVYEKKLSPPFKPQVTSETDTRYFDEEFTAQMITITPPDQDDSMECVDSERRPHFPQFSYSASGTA
Chain of Serine/threonine-protein kinase Chk1 (Homo sapiens) (O14757 whole entry): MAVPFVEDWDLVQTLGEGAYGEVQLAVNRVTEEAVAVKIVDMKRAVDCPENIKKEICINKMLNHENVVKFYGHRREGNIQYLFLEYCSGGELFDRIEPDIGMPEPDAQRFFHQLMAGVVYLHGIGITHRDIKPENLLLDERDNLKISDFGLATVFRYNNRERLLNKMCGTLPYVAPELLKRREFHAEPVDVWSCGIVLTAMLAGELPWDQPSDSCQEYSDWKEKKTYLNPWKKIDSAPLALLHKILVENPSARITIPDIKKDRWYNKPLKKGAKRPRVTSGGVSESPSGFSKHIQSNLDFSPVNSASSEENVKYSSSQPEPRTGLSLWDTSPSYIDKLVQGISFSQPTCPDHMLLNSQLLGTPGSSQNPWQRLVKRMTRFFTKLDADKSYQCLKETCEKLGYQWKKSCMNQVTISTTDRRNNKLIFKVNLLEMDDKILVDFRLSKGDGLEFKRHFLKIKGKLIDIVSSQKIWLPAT

Question: For `COCCNC(=O)c1ccc(Oc2sc(C(N)=O)c3c2-c2sncc2CC3)cn1`, which inhibition [1] is on record?
Answer: Its inhibition is 7%.

Question: And the Fu [2]?
Answer: The Fu was 0.48%.

Question: What about the inhibition [3] of the same compound?
Answer: Its inhibition is 31%.

Question: And the AUC [4]?
Answer: The AUC was 90.4 ng·h/mL.

Question: And the inhibition [5]?
Answer: The inhibition was “inactive”.

Question: And the GI50 [6]?
Answer: The GI50 was 430 pM.

Question: What about the microsomal CLint at 1 µM [7] of the same compound?
Answer: The microsomal CLint at 1 µM was 21 µL/min/mg.

Question: What about the Fu [8] of the same compound?
Answer: The Fu was 0.47%.

Question: And the inhibition [9]?
Answer: Its inhibition is “inactive”.

Question: And the inhibition [10]?
Answer: The inhibition was 33%.

Question: And the Vd [11]?
Answer: Its Vd is 2.14 L/kg.

Question: And the inhibition [12]?
Answer: The inhibition was “inactive”.

Question: And the inhibition [13]?
Answer: Its inhibition is “Active”.

Question: And the MRT [14]?
Answer: Its MRT is 2.06 h.

Question: And the inhibition [15]?
Answer: The inhibition was “Active”.

Question: And the “growth inhibition (GI)” value [16]?
Answer: Its value is over 50%.

Question: And the inhibition [17]?
Answer: The inhibition was “inactive”.

Question: What about the inhibition [18] of the same compound?
Answer: Its inhibition is “inactive”.

Question: And the inhibition [19]?
Answer: Its inhibition is “inactive”.

Question: What about the inhibition [20] of the same compound?
Answer: Its inhibition is 1%.

Question: And the IC50 [21]?
Answer: The IC50 was 460 pM.

Question: What about the inhibition [22] of the same compound?
Answer: Its inhibition is “inactive”.

Question: What about the inhibition [23] of the same compound?
Answer: Its inhibition is “inactive”.

Question: And the MTD [24]?
Answer: The MTD was 2.5 mg/kg.

Question: What about the AUC(0-t) at 24 h [25] of the same compound?
Answer: The AUC(0-t) at 24 h was 891 ng·h/mL.

Question: What about the Fu [26] of the same compound?
Answer: Its Fu is 0.43%.

Question: What about the inhibition [27] of the same compound?
Answer: Its inhibition is “inactive”.

Question: And the Cmax [28]?
Answer: The Cmax was 362 ng/mL.

Question: And the inhibition [29]?
Answer: Its inhibition is “inactive”.
